Experimental data taken from publication PMC5856786, “A DHODH inhibitor increases p53 synthesis and enhances tumor cell killing by p53 degradation blockage” (Nature Communications, 2018).
Values belong to the molecule of their own block, whether it stands above or below them.

How the values were obtained:
ARN8 cells [1] = assay: PI flow cytometry, sub-G1 cells, ARN8; format: cell-based, human; details: for DMSO control subtracted effect (cells in sub-G1) / sub-G1 cells: ARN8 72 h
Procedure: (§1) Cell cycle distribution analysis was performed on a Becton Dickinson FACScan flow cytometer or FACSCalibur (BD Biosciences) following staining with propidium iodide (PI) or dual labeling with BrdU and PI[36]. These assays were analyzed using CellQuest Pro (BD Biosciences).

protein kinases = assay: Radioactive filter-binding assays, panel of 140 kinases (Supplementary Table 2); format: biochemical
Procedure: Supplementary Table 2. In vitro inhibition (% remaining activity) of protein
free assays. Screening was performed by the International Centre for Kinase Profiling
(Dundee, UK) using radioactive ( P-ATP) filter-binding assays.
(§2) (1 picture or pasted object on this page, not shown here)

[2] = test system: P-chk1 (Ser 345)/chk1 in HNDF cells; assay: P-chk1/chk1 ratio by western blotting, HNDF; format: cell-based, human; details: second blot (taken as HNDF)
Procedure: (Sigma, #N9162) for a further 2 h. […]
(Ser 345) and chk1 were detected. Ponceau S staining was used to monitor loading. […]

ARN8 cells [3] = assay: BrdU/PI flow cytometry, cell cycle distribution; format: cell-based, human
Procedure: as §1

ARN8 cells [4] = assay: SRB growth/viability assay, ARN8; format: cell-based, human; details: for effect on cell growth and p53 activation in presence of excess uridine: uridine 100 μM
Procedure: SRB assays measuring protein content were performed in 96-well plates as previously described.

RNA levels in ARN8 cells = assay: RNASeq differential expression and gene ontology analysis; format: cell-based, human; details: ARN8, 5 h
Source text: Libraries were generated using the NEBNext Ultra Directional RNA Library Prep Kit for Illumina (New England Biolabs). Data are deposited at GEO with the accession code: GSE87577. […] Differential expression and gene ontology analysis are in Supplementary Data 1. Values correspond to the average of three biological repeats.

human mdmx (hdmx) = target: T1, human mdmx (hdmx) (Homo sapiens, UniProt O15151); assay: hdmx binding (CETSA in ARN8 extracts; ELISA with IP3 peptide); details: CETSA at 100 μM
T1 construct: ARN8 soluble cell extracts were prepared for the cellular thermal shift assay (CETSA); endogenous in cells; host or cells: ARN8 human melanoma cells (soluble extract)
Procedure: Levels of gapdh were used to monitor protein loading. e ARN8 or HNDF cells were treated with the indicated compound concentrations for 72 h and subjected to MTT assays. […] Incorporation of ^35S in the p53 immunoprecipitate was determined by autoradiography. The experiment is shown in duplicate
corresponds to residues 17−26 of wild-type p53) was determined by ELISA (See
supplementary information9). The percentage hdm2/hdmx bound to IP3 relative to the vehicle
upon which cycloheximide (CHX) (10 µg mL-1) was added for the indicated periods of time. […]

[5] = test system: cyclin-dependent kinases (CDKs); assay: 33PanQinase radiometric kinase assay, panel of 16 CDKs (Supplementary Table 1); format: biochemical
Source text: Supplementary Table 1. In vitro inhibition (% remaining activity) of cyclin-dependent
ProQinase GmbH (Freiburg, Germany) using a radiometric protein kinase assay
(33PanQinase® Activity Assay).
as §2

recombinant human DHODH = recombinant human DHODH (Homo sapiens, UniProt Q02127); assay: Kinetic DHODH enzyme assay (3,4-dimethoxy-5-methyl-p-benzoquinone, DCIP); format: biochemical; parameters: made in house
Procedure: In Fig. 5a enzyme assays were optimized and performed with 6 nM recombinant human DHODH prepared as described. The reaction mixture for these kinetic assays consisted of 1 mM DL-dihydroorotic acid, 100 µM 3,4-dimethoxy-5-methyl-p-benzoquinone (#D9150, Sigma-Aldrich), and 100 µM DCIP in enzyme buffer. A stock solution of 20 mM DCIP was prepared in enzyme buffer and filtered through filter paper (20–25 μm pore size) just before use. Loss in absorbance by DCIP was measured at 595 nm at RT in a stepped time course (8 × 2 min, 8 × 3 min, 6 × 5 min). […] Therefore, for each concentration of inhibitor tested, a value for DHODH’s Vmax was estimated by linear regression within this time frame.

U2OS cells = assay: PI flow cytometry, sub-G1 cells, U2OS; format: cell-based
Procedure: as §1

[6] = test system: p53-dependent transcription in ARN8 human melanoma cells; assay: p53-dependent transcription reporter (CPRG assay) in ARN8 cells; format: cell-based; details: cultured cells; authors' response in peer review file
Procedure: A 20,000 compound library was purchased from ChemBridge consisting of 10,000 from the DIVERSet and 10,000 from the CombiSet libraries. […] A total of 30,000 additional compounds from the ChemBridge DIVERSet that were previously screened in a T22 cell background[12] were re-screened in ARN8 cells at 5 µM. The ChemBridge codes for these compounds can be made available upon request. All chemical synthesis is detailed in Supplementary Information with NMR spectra and reaction schemes detailed in Supplementary Figs. 13–19.

ARN8 cells [7] = assay: Giemsa staining of ARN8 cultures (uridine, orotic acid, dihydroorotic acid supplementation); format: cell-based, human; details: 72 h, 2.5 or 5 μM uridine, serum replacement medium
Procedure: Additionally, ARN8 cells were treated for 16 h and p53-dependent transcription was measured by CPRG assay. Values correspond to the average of three technical repeats ± SD. c Simplified description of the pyrimidine nucleotide de novo (blue) and salvage (black) pathways. d ARN8 cells were seeded in FBS supplemented DMEM with a change to serum replacement medium 24 h post seeding. […] Values correspond to the average of three technical repeats ± SD. f ARN8 cells were seeded in FBS supplemented DMEM with a change to serum replacement medium 24 h post seeding.

recombinant human DHODH, sequence (Q02127 29-395 limits assumed): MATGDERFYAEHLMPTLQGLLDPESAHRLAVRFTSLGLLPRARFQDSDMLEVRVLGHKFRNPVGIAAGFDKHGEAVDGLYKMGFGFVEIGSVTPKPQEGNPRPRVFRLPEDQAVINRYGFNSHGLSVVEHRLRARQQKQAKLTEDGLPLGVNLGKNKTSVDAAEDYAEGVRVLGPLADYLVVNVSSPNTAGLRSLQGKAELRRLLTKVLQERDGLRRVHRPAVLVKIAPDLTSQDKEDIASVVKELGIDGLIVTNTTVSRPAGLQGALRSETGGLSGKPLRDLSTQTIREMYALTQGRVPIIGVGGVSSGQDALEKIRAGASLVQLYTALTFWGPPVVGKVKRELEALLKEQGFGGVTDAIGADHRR
T1 sequence (O15151 whole entry): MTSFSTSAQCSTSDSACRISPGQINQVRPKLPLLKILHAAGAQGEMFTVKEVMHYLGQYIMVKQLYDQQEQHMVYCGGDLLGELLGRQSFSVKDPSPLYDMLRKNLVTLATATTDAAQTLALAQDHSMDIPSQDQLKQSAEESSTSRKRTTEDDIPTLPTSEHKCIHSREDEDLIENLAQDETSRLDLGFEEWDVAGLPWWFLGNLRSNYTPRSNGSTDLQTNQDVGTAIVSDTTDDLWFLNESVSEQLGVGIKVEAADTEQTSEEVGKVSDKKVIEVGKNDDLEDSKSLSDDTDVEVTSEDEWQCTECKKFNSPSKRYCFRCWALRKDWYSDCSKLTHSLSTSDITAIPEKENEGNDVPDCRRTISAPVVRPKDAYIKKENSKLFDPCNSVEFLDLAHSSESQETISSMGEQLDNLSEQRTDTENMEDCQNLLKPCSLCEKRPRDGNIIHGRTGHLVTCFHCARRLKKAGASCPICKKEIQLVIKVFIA

inhibition of protein kinases (protein kinases): did not detect inhibition
binding to human mdmx (hdmx) (human mdmx (hdmx)): not detected
inhibition of cyclin-dependent kinases [5]: did not detect inhibition
Structure (SMILES): O=C(NC1CCCc2c1cnn2-c1ccccc1F)c1ccccn1 (stereo not shown) [HZ00]
synergy with nutlin-3 (cell kill) (ARN8 cells [1]; ARN8 in vitro, 72 h, additivity and Bliss independence models): synergistic cell kill
P-chk1/chk1 ([2]; HZ00 10 µM, 24 h): 0.98
P-chk1/chk1 ([2]; HZ00 10 µM, 48 h): 0.89
P-chk1/chk1 ([2]; HZ00 10 µM, 72 h): 1.13
P-chk1/chk1 ([2]; HZ00 20 µM, 24 h): 1.08
P-chk1/chk1 ([2]; HZ00 20 µM, 48 h): 1.05
P-chk1/chk1 ([2]; HZ00 20 µM, 72 h): 1.07
accumulation of cells in S-phase (ARN8 cells [3]): accumulates ARN8 cells in S-phase
effect on cell growth and p53 activation in presence of excess uridine (ARN8 cells [4]; ARN8): completely abolished
log2FoldChange, drug vs DMSO, gene ENSG00000166436 (RNA levels in ARN8 cells; sheet Drug HZ00vsDMSO (20 μM)): -1.5997
log2FoldChange, drug vs DMSO, gene ENSG00000197153 (RNA levels in ARN8 cells; sheet Drug HZ00vsDMSO (20 μM)): -1.477
log2FoldChange, drug vs DMSO, gene ENSG00000204569 (RNA levels in ARN8 cells; sheet Drug HZ00vsDMSO (20 μM)): -2.244
log2FoldChange, drug vs DMSO, gene ENSG00000221926 (RNA levels in ARN8 cells; sheet Drug HZ00vsDMSO (20 μM)): -1.707
log2FoldChange, drug vs DMSO, gene ENSG00000277224 (RNA levels in ARN8 cells; sheet Drug HZ00vsDMSO (20 μM)): -1.408

IC50 (recombinant human DHODH; Fig. 5a, average of three independent repeats ± SD): 32 ± 2 nM
concentration inhibiting DHODH enzymatic activity (recombinant human DHODH; authors' response in peer review file): below 40 nM
Structure (SMILES): O=C(NC1CCCc2c1cnn2-c1ccccc1F)c1onc2c1CCCC2 (stereo not shown) [HZ05]
DMSO control subtracted effect (cells in sub-G1) (ARN8 cells [1]; HZ05 250 nM + nutlin-3a 0 µM): 0.06
DMSO control subtracted effect (cells in sub-G1) (ARN8 cells [1]; HZ05 250 nM + nutlin-3a 5 µM): 0.27
DMSO control subtracted effect (cells in sub-G1) (ARN8 cells [1]; HZ05 250 nM + nutlin-3a 10 µM): 0.48
DMSO control subtracted effect (cells in sub-G1) (ARN8 cells [1]; HZ05 250 nM + nutlin-3a 15 µM): 0.69
DMSO control subtracted effect (cells in sub-G1) (ARN8 cells [1]; HZ05 250 nM + nutlin-3a […]): 0.61
sub-G1 cells (ARN8 cells [1]; HZ05 400 nM (Fig. 6c)): 16.61%
sub-G1 cells (ARN8 cells [1]; HZ05 400 nM + nutlin-3a 1 μM): 36.73%
sub-G1 cells (ARN8 cells [1]; HZ05 400 nM + nutlin-3a 2.5 μM): 46.63%
sub-G1 cells (ARN8 cells [1]; HZ05 400 nM + nutlin-3a 5 μM): 54.06%
DMSO control subtracted effect (cells in sub-G1) (ARN8 cells [1]; HZ05 500 nM + nutlin-3a 0 µM): 0.08
DMSO control subtracted effect (cells in sub-G1) (ARN8 cells [1]; HZ05 500 nM + nutlin-3a 5 µM): 0.35
DMSO control subtracted effect (cells in sub-G1) (ARN8 cells [1]; HZ05 500 nM + nutlin-3a 10 µM): 0.60
DMSO control subtracted effect (cells in sub-G1) (ARN8 cells [1]; HZ05 500 nM + nutlin-3a 15 µM): 0.67
DMSO control subtracted effect (cells in sub-G1) (ARN8 cells [1]; HZ05 500 nM + nutlin-3a […]): 0.58
sub-G1 cells (ARN8 cells [1]; HZ05 1 μM (Fig. 6b)): 31.06%
DMSO control subtracted effect (cells in sub-G1) (ARN8 cells [1]; HZ05 1000 nM + nutlin-3a 10 µM): 0.56
DMSO control subtracted effect (cells in sub-G1) (ARN8 cells [1]; HZ05 1000 nM + nutlin-3a 15 µM): 0.71
DMSO control subtracted effect (cells in sub-G1) (ARN8 cells [1]; HZ05 1000 nM + nutlin-3a […]): 0.62
sub-G1 cells (ARN8 cells [1]; HZ05 2.5 μM (Fig. 6b)): 35.04%
DMSO control subtracted effect (cells in sub-G1) (ARN8 cells [1]; HZ05 […] + nutlin-3a 0 µM): 0.03
DMSO control subtracted effect (cells in sub-G1) (ARN8 cells [1]; HZ05 […] + nutlin-3a 5 µM): 0.19
DMSO control subtracted effect (cells in sub-G1) (ARN8 cells [1]; HZ05 […] + nutlin-3a 10 µM): 0.39
DMSO control subtracted effect (cells in sub-G1) (ARN8 cells [1]; HZ05 […] + nutlin-3a 15 µM): 0.63
synergy with nutlin-3a (cell kill) (ARN8 cells [1]; ARN8 in vitro, 72 h): strong synergistic cell kill
sub-G1 cells (U2OS cells; HZ05 1 μM 72 h + 48 h, 2 μM nutlin-3a last 48 h): 38.2%
sub-G1 cells (U2OS cells; HZ05 1 μM 72 h + 48 h, DMSO last 48 h): 25.7%
sub-G1 cells (U2OS cells; HZ05 1 μM, 72 h treatment): 3.7%
sub-G1 cells (U2OS cells; HZ05 2.5 μM, 72 h treatment): 4.8%
accumulation of cells in S-phase (ARN8 cells [3]): accumulation of ARN8 cells in S-phase
concentration activating p53-dependent transcription [6]: below 40 nM
effect of serum albumin concentration on activity (ARN8 cells [4]; ARN8, 72 h, increasing BSA): affected to a lesser degree than brequinar
effect on cell growth and p53 activation in presence of excess uridine (ARN8 cells [4]; ARN8): prevented by addition of excess uridine
concentration reducing cell viability or growth (ARN8 cells [4]; cultured cells, authors' response in peer review file): ~160 nM
tumor cell growth at physiological uridine levels (ARN8 cells [7]): able to ablate tumor cell growth
log2FoldChange, drug vs DMSO, gene ENSG00000121101 (RNA levels in ARN8 cells; sheet Drug HZ05vsDMSO (5 μM)): -2.498
log2FoldChange, drug vs DMSO, gene ENSG00000197153 (RNA levels in ARN8 cells; sheet Drug HZ05vsDMSO (5 μM)): -1.694
log2FoldChange, drug vs DMSO, gene ENSG00000204569 (RNA levels in ARN8 cells; sheet Drug HZ05vsDMSO (5 μM)): -2.424
log2FoldChange, drug vs DMSO, gene ENSG00000221926 (RNA levels in ARN8 cells; sheet Drug HZ05vsDMSO (5 μM)): -1.667
log2FoldChange, drug vs DMSO, gene ENSG00000276410 (RNA levels in ARN8 cells; sheet Drug HZ05vsDMSO (5 μM)): -1.7121
